Experimental data as given in BindingDB's records for doi:10.1021/jm500763m (Beijing Institute of Pharmacology & Toxicology, 2014).
Square brackets hold non-standard residues; d marks the D form. Peptide text beside a SMILES is read from it. * marks the point of attachment. X1 = C=CCOC(=O)[C@]12CC[C@@H](C(=C)C)[C@@H]1[C@H]1CC[C@@H]3[C@@]4(C)CC[C@H](OC(=O)CCc5cn(CC(=O)*)nn5)C(C)(C)[C@@H]4CC[C@@]3(C)[C@]1(C)CC2; X5 = C=C(C)[C@@H]1CC[C@]2(C(=O)OCc3cn(CC(=O)*)nn3)CC[C@]3(C)[C@H](CC[C@@H]4[C@@]5(C)CC[C@H](OC(C)=O)C(C)(C)[C@@H]5CC[C@]43C)[C@@H]12; X8 = C[C@H]1[C@H](C)CC[C@]2(C(=O)O)CC[C@]3(C)C(=CC[C@@H]4[C@@]5(C)CC[C@H](OC(=O)CCc6cn(CC(=O)*)nn6)C(C)(C)[C@@H]5CC[C@]43C)[C@H]12; X4 = C=C(C)[C@@H]1CC[C@]2(C(=O)OCc3cn(CC(=O)*)nn3)CC[C@]3(C)[C@H](CC[C@@H]4[C@@]5(C)CC[C@H](O)C(C)(C)[C@@H]5CC[C@]43C)[C@@H]12; X7 = C[C@H]1[C@H](C)CC[C@]2(C(=O)OCc3cn(CC(=O)*)nn3)CC[C@]3(C)C(=CC[C@@H]4[C@@]5(C)CC[C@H](O)C(C)(C)[C@@H]5CC[C@]43C)[C@H]12; X6 = CC1(C)CC[C@]2(C(=O)O)CC[C@]3(C)C(=CC[C@@H]4[C@@]5(C)CC[C@H](OC(=O)CCc6cn(CC(=O)*)nn6)C(C)(C)[C@@H]5CC[C@]43C)[C@@H]2C1; X10 = CC1(C)CC[C@]2(C(=O)OCc3cn(CC(=O)*)nn3)CC[C@]3(C)C(=CC[C@@H]4[C@@]5(C)CC[C@H](O)C(C)(C)[C@@H]5CC[C@]43C)[C@@H]2C1; X11 = CCCc1cn(CC(=O)*)nn1; βAla = NCCC(=O)O

Legend:
[1] = Inhibition of HIV1 gp41-induced cell-cell fusion between viral envelope expressing human HL2/3 cells to CD4/CCR5 receptor expressing TZM-bl cells compound preincubated for 1 hr measured after 48 hrs by prime/wash assay
[2] = Inhibition of HIV1 gp41-induced cell-cell fusion between viral envelope expressing human HL2/3 cells to CD4/CCR5 receptor expressing TZM-bl cells after 6 to 8 hrs by luciferase assay
[3] = Inhibition of HIV1 gp41-induced cell-cell fusion between viral envelope expressing human HL2/3 cells to CD4/CCR5 receptor expressing TZM-bl cells compound preincubated for 1 hr followed by wash out measured after 48 hrs by prime/wash assay

Compound	EC50 [2]	EC50 [1]	EC50 [3]
C=C(C)[C@@H]1CC[C@]2(C(=O)OCc3cn(CC(=O)NCCC(=O)N[C@@H](CC(N)=O)C(=O)N[C@@H](CC(N)=O)C(=O)N[C@@H](Cc4ccc(O)cc4)C(=O)N[C@H](C(=O)N[C@@H](CO)C(=O)N[C@@H](CC(C)C)C(=O)N[C@H](C(=O)N[C@@H](Cc4cnc[nH]4)C(=O)N[C@@H](CO)C(=O)N[C@@H](CC(C)C)C(=O)N[C@H](C(=O)N[C@@H](CCC(=O)O)C(=O)N[C@@H](CCC(=O)O)C(=O)N[C@@H](CO)C(=O)N[C@@H](CCC(N)=O)C(=O)N[C@@H](CC(N)=O)C(=O)N[C@@H](CCC(N)=O)C(=O)N[C@@H](CCC(N)=O)C(=O)N[C@@H](CCC(=O)O)C(=O)N[C@@H](CCCCN)C(=O)N[C@@H](CC(N)=O)C(=O)N[C@@H](CCC(=O)O)C(=O)N[C@@H](CCC(N)=O)C(=O)N[C@@H](CCC(=O)O)C(=O)N[C@@H](CC(C)C)C(=O)N[C@@H](CC(C)C)C(N)=O)[C@@H](C)CC)[C@@H](C)CC)[C@@H](C)O)nn3)CC[C@]3(C)[C@H](CC[C@@H]4[C@@]5(C)CC[C@H](OC(C)=O)C(C)(C)[C@@H]5CC[C@]43C)[C@@H]12 ({X5-βAla}-NNYTSLIHSLIEESQNQQEKNEQELL-NH2)	327 nM		
CC[C@H](C)[C@H](NC(=O)[C@H](CC(C)C)NC(=O)[C@H](CO)NC(=O)[C@H](Cc1cnc[nH]1)NC(=O)[C@@H](NC(=O)[C@H](CC(C)C)NC(=O)[C@H](CO)NC(=O)[C@@H](NC(=O)[C@H](Cc1ccc(O)cc1)NC(=O)[C@H](CC(N)=O)NC(=O)[C@H](CC(N)=O)NC(=O)CCNC(=O)Cn1cc(COC(=O)[C@]23CC[C@@H](C)[C@H](C)[C@H]2C2=CC[C@@H]4[C@@]5(C)CC[C@H](O)C(C)(C)[C@@H]5CC[C@@]4(C)[C@]2(C)CC3)nn1)[C@@H](C)O)[C@@H](C)CC)C(=O)N[C@@H](CCC(=O)O)C(=O)N[C@@H](CCC(=O)O)C(=O)N[C@@H](CO)C(=O)N[C@@H](CCC(N)=O)C(=O)N[C@@H](CC(N)=O)C(=O)N[C@@H](CCC(N)=O)C(=O)N[C@@H](CCC(N)=O)C(=O)N[C@@H](CCC(=O)O)C(=O)N[C@@H](CCCCN)C(=O)N[C@@H](CC(N)=O)C(=O)N[C@@H](CCC(=O)O)C(=O)N[C@@H](CCC(N)=O)C(=O)N[C@@H](CCC(=O)O)C(=O)N[C@@H](CC(C)C)C(=O)N[C@@H](CC(C)C)C(N)=O ({X7-βAla}-NNYTSLIHSLIEESQNQQEKNEQELL-NH2)	145 nM		
CC[C@H](C)[C@H](NC(=O)[C@H](CC(C)C)NC(=O)[C@H](CO)NC(=O)[C@H](Cc1cnc[nH]1)NC(=O)[C@@H](NC(=O)[C@H](CC(C)C)NC(=O)[C@H](CO)NC(=O)[C@@H](NC(=O)[C@H](Cc1ccc(O)cc1)NC(=O)[C@H](CC(N)=O)NC(=O)[C@H](CC(N)=O)NC(=O)CCNC(=O)Cn1cc(COC(=O)[C@]23CCC(C)(C)C[C@H]2C2=CC[C@@H]4[C@@]5(C)CC[C@H](O)C(C)(C)[C@@H]5CC[C@@]4(C)[C@]2(C)CC3)nn1)[C@@H](C)O)[C@@H](C)CC)C(=O)N[C@@H](CCC(=O)O)C(=O)N[C@@H](CCC(=O)O)C(=O)N[C@@H](CO)C(=O)N[C@@H](CCC(N)=O)C(=O)N[C@@H](CC(N)=O)C(=O)N[C@@H](CCC(N)=O)C(=O)N[C@@H](CCC(N)=O)C(=O)N[C@@H](CCC(=O)O)C(=O)N[C@@H](CCCCN)C(=O)N[C@@H](CC(N)=O)C(=O)N[C@@H](CCC(=O)O)C(=O)N[C@@H](CCC(N)=O)C(=O)N[C@@H](CCC(=O)O)C(=O)N[C@@H](CC(C)C)C(=O)N[C@@H](CC(C)C)C(N)=O ({X10-βAla}-NNYTSLIHSLIEESQNQQEKNEQELL-NH2)	176 nM		
CCCc1cn(CC(=O)NCCC(=O)N[C@@H](CC(N)=O)C(=O)N[C@@H](CC(N)=O)C(=O)N[C@@H](Cc2ccc(O)cc2)C(=O)N[C@H](C(=O)N[C@@H](CO)C(=O)N[C@@H](CC(C)C)C(=O)N[C@H](C(=O)N[C@@H](Cc2cnc[nH]2)C(=O)N[C@@H](CO)C(=O)N[C@@H](CC(C)C)C(=O)N[C@H](C(=O)N[C@@H](CCC(=O)O)C(=O)N[C@@H](CCC(=O)O)C(=O)N[C@@H](CO)C(=O)N[C@@H](CCC(N)=O)C(=O)N[C@@H](CC(N)=O)C(=O)N[C@@H](CCC(N)=O)C(=O)N[C@@H](CCC(N)=O)C(=O)N[C@@H](CCC(=O)O)C(=O)N[C@@H](CCCCN)C(=O)N[C@@H](CC(N)=O)C(=O)N[C@@H](CCC(=O)O)C(=O)N[C@@H](CCC(N)=O)C(=O)N[C@@H](CCC(=O)O)C(=O)N[C@@H](CC(C)C)C(=O)N[C@@H](CC(C)C)C(N)=O)[C@@H](C)CC)[C@@H](C)CC)[C@@H](C)O)nn1 ({X11-βAla}-NNYTSLIHSLIEESQNQQEKNEQELL-NH2)	3580 nM		
C[C@H]1[C@H](C)CC[C@]2(C(=O)O)CC[C@]3(C)C(=CC[C@@H]4[C@@]5(C)CC[C@H](O)C(C)(C)[C@@H]5CC[C@]43C)[C@H]12 [3beta-hydroxyurs-12-en-28-oic acid]	> 100000 nM		
CC1(C)CC[C@]2(C(=O)O)CC[C@]3(C)C(=CC[C@@H]4[C@@]5(C)CC[C@H](O)C(C)(C)[C@@H]5CC[C@]43C)[C@@H]2C1 [Oleanolic acid (OA)(Compound 1)]	> 100000 nM		
enfuvirtide	10 nM	14 nM	542 nM

Continued, in another order:

EC50 [2]	Compound	EC50 [1]	EC50 [3]
3.9 nM	C=CCOC(=O)[C@]12CC[C@@H](C(=C)C)[C@@H]1[C@H]1CC[C@@H]3[C@@]4(C)CC[C@H](OC(=O)CCc5cn(CC(=O)NCCCC[C@H](NC(=O)CCNC(=O)[C@H](CC(C)C)NC(=O)[C@H](CC(C)C)NC(=O)[C@H](CCC(=O)O)NC(=O)[C@H](CCC(N)=O)NC(=O)[C@H](CCC(=O)O)NC(=O)[C@H](CC(N)=O)NC(=O)[C@H](CCCCN)NC(=O)[C@H](CCC(=O)O)NC(=O)[C@H](CCC(N)=O)NC(=O)[C@H](CCC(N)=O)NC(=O)[C@H](CC(N)=O)NC(=O)[C@H](CCC(N)=O)NC(=O)[C@H](CO)NC(=O)[C@H](CCC(=O)O)NC(=O)[C@H](CCC(=O)O)NC(=O)[C@@H](NC(=O)[C@H](CC(C)C)NC(=O)[C@H](CO)NC(=O)[C@H](Cc6cnc[nH]6)NC(=O)[C@@H](NC(=O)[C@H](CC(C)C)NC(=O)[C@H](CO)NC(=O)[C@@H](NC(=O)[C@H](Cc6ccc(O)cc6)NC(=O)[C@H](CC(N)=O)NC(=O)[C@H](CC(N)=O)NC(C)=O)[C@@H](C)O)[C@@H](C)CC)[C@@H](C)CC)C(N)=O)nn5)C(C)(C)[C@@H]4CC[C@@]3(C)[C@]1(C)CC2 (Ac-NNYTSLIHSLIEESQNQQEKNEQELL[βAla]K(X1)-NH2)	13 nM	
89 nM	C=C(C)[C@@H]1CC[C@]2(C(=O)OCc3cn(CC(=O)NCCC(=O)N[C@@H](CC(N)=O)C(=O)N[C@@H](CC(N)=O)C(=O)N[C@@H](Cc4ccc(O)cc4)C(=O)N[C@H](C(=O)N[C@@H](CO)C(=O)N[C@@H](CC(C)C)C(=O)N[C@H](C(=O)N[C@@H](Cc4cnc[nH]4)C(=O)N[C@@H](CO)C(=O)N[C@@H](CC(C)C)C(=O)N[C@H](C(=O)N[C@@H](CCC(=O)O)C(=O)N[C@@H](CCC(=O)O)C(=O)N[C@@H](CO)C(=O)N[C@@H](CCC(N)=O)C(=O)N[C@@H](CC(N)=O)C(=O)N[C@@H](CCC(N)=O)C(=O)N[C@@H](CCC(N)=O)C(=O)N[C@@H](CCC(=O)O)C(=O)N[C@@H](CCCCN)C(=O)N[C@@H](CC(N)=O)C(=O)N[C@@H](CCC(=O)O)C(=O)N[C@@H](CCC(N)=O)C(=O)N[C@@H](CCC(=O)O)C(=O)N[C@@H](CC(C)C)C(=O)N[C@@H](CC(C)C)C(N)=O)[C@@H](C)CC)[C@@H](C)CC)[C@@H](C)O)nn3)CC[C@]3(C)[C@H](CC[C@@H]4[C@@]5(C)CC[C@H](O)C(C)(C)[C@@H]5CC[C@]43C)[C@@H]12 ({X4-βAla}-NNYTSLIHSLIEESQNQQEKNEQELL-NH2)		
29 nM	CC[C@H](C)[C@H](NC(=O)[C@H](CC(C)C)NC(=O)[C@H](CO)NC(=O)[C@H](Cc1cnc[nH]1)NC(=O)[C@@H](NC(=O)[C@H](CC(C)C)NC(=O)[C@H](CO)NC(=O)[C@@H](NC(=O)[C@H](Cc1ccc(O)cc1)NC(=O)[C@H](CC(N)=O)NC(=O)[C@H](CC(N)=O)NC(=O)CCNC(=O)Cn1cc(CCC(=O)O[C@H]2CC[C@]3(C)[C@H]4CC=C5[C@@H]6CC(C)(C)CC[C@]6(C(=O)O)CC[C@@]5(C)[C@]4(C)CC[C@H]3C2(C)C)nn1)[C@@H](C)O)[C@@H](C)CC)C(=O)N[C@@H](CCC(=O)O)C(=O)N[C@@H](CCC(=O)O)C(=O)N[C@@H](CO)C(=O)N[C@@H](CCC(N)=O)C(=O)N[C@@H](CC(N)=O)C(=O)N[C@@H](CCC(N)=O)C(=O)N[C@@H](CCC(N)=O)C(=O)N[C@@H](CCC(=O)O)C(=O)N[C@@H](CCCCN)C(=O)N[C@@H](CC(N)=O)C(=O)N[C@@H](CCC(=O)O)C(=O)N[C@@H](CCC(N)=O)C(=O)N[C@@H](CCC(=O)O)C(=O)N[C@@H](CC(C)C)C(=O)N[C@@H](CC(C)C)C(N)=O ({X6-βAla}-NNYTSLIHSLIEESQNQQEKNEQELL-NH2)		
52 nM	CC[C@H](C)[C@H](NC(=O)[C@H](CC(C)C)NC(=O)[C@H](CO)NC(=O)[C@H](Cc1cnc[nH]1)NC(=O)[C@@H](NC(=O)[C@H](CC(C)C)NC(=O)[C@H](CO)NC(=O)[C@@H](NC(=O)[C@H](Cc1ccc(O)cc1)NC(=O)[C@H](CC(N)=O)NC(=O)[C@H](CC(N)=O)NC(=O)CCNC(=O)Cn1cc(CCC(=O)O[C@H]2CC[C@]3(C)[C@H]4CC=C5[C@@H]6[C@@H](C)[C@H](C)CC[C@]6(C(=O)O)CC[C@@]5(C)[C@]4(C)CC[C@H]3C2(C)C)nn1)[C@@H](C)O)[C@@H](C)CC)C(=O)N[C@@H](CCC(=O)O)C(=O)N[C@@H](CCC(=O)O)C(=O)N[C@@H](CO)C(=O)N[C@@H](CCC(N)=O)C(=O)N[C@@H](CC(N)=O)C(=O)N[C@@H](CCC(N)=O)C(=O)N[C@@H](CCC(N)=O)C(=O)N[C@@H](CCC(=O)O)C(=O)N[C@@H](CCCCN)C(=O)N[C@@H](CC(N)=O)C(=O)N[C@@H](CCC(=O)O)C(=O)N[C@@H](CCC(N)=O)C(=O)N[C@@H](CCC(=O)O)C(=O)N[C@@H](CC(C)C)C(=O)N[C@@H](CC(C)C)C(N)=O ({X8-βAla}-NNYTSLIHSLIEESQNQQEKNEQELL-NH2)		
